How the values were obtained:
[1] = tested on: RAW264.7; test: Anti-inflammatory activity against mouse RAW264.7 cells assessed as inhibition of LPS-induced NO production at 5 uM measured after 24 hrs incubation by Griess assay relative to control; type: functional
[2] = Cytotoxicity against mouse RAW264.7 cells assessed as cell viability at 5 uM measured after 24 hrs incubation by MTT assay relative to control; type: toxicity, cell-based; settings: read-out: Activity
[3] = tested on: RAW264.7; test: Anti-inflammatory activity against mouse RAW264.7 cells assessed as inhibition of LPS-induced NO production measured after 24 hrs incubation by Griess assay; type: functional, cell-based; settings: RAW264.7, 24 h
[4] = tested on: RAW264.7; test: Anti-inflammatory activity against mouse RAW264.7 cells assessed as inhibition of LPS-induced TNFalpha level pretreated for 1 hr followed by induced with LPS measured after 24 hrs by ELISA; type: functional, cell-based; settings: dose 2.5-20 µM, time 25.0 hrs
[5] = tested on: RAW264.7; test: Anti-inflammatory activity against mouse RAW264.7 cells assessed as inhibition of LPS-induced COX2 level pretreated for 1 hr followed by induced with LPS measured after 24 hrs by ELISA; type: functional, cell-based; settings: dose 2.5-20 µM, time 25.0 hrs

SMILES | inhibition at 5 µM [1] | viability at 24 h, 5 µM [2] | IC50 [3] | inhibition [4] | inhibition [5]
CSc1ccc(C2CC([C@H]3CC[C@H]4[C@@H]5CC=C6C[C@@H](O)CC[C@]6(C)[C@H]5CC[C@]34C)=NN2C2=NC(=O)CS2)cc1 (stereo partly specified) | 45.2% | 82.2% |  |  | 
C[C@@H]1C[C@H]2[C@@H]3CCC4=CC(=O)C=C[C@]4(C)[C@@]3(F)[C@@H](O)C[C@]2(C)[C@@]1(O)C(=O)CO [DEXAMETHASONE] | 42.3% | 92% | 3.8 µM | Dose-Dependent Effect | Dose-Dependent Effect
C[C@]12CC[C@H]3[C@@H](CC=C4C[C@@H](O)CC[C@@]43C)[C@@H]1CC[C@@H]2C1=NN(C2=NC(=O)CS2)C(c2ccccc2Cl)C1 (stereo partly specified) | 52.6% | 81.1% | 12.2 µM |  | 
COc1ccccc1C1CC([C@H]2CC[C@H]3[C@@H]4CC=C5C[C@@H](O)CC[C@]5(C)[C@H]4CC[C@]23C)=NN1C1=NC(=O)CS1 (stereo partly specified) | 55.5% | 70% |  |  | 
Cc1ccc(C2CC([C@H]3CC[C@H]4[C@@H]5CC=C6C[C@@H](O)CC[C@]6(C)[C@H]5CC[C@]34C)=NN2C2=NC(=O)CS2)cc1 (stereo partly specified) | 35.4% | 88.5% |  |  | 
C[C@]12CC[C@H]3[C@@H](CC=C4C[C@@H](O)CC[C@@]43C)[C@@H]1CC[C@@H]2C1=NN(C2=NC(=O)CS2)C(c2ccc(Br)cc2)C1 (stereo partly specified) | 45.4% | 85.5% | 2.27 µM | Dose-Dependent Effect | Dose-Dependent Effect
C[C@]12CC[C@H]3[C@@H](CC=C4C[C@@H](O)CC[C@@]43C)[C@@H]1CC[C@@H]2C1=NN(C2=NC(=O)CS2)C(c2ccc(S(C)(=O)=O)cc2)C1 (stereo partly specified) | 47.3% | 74.5% |  |  | 
CCc1ccc(C2CC([C@H]3CC[C@H]4[C@@H]5CC=C6C[C@@H](O)CC[C@]6(C)[C@H]5CC[C@]34C)=NN2C2=NC(=O)CS2)cc1 (stereo partly specified) | 39.9% | 82.8% |  |  | 
C[C@]12CC[C@H]3[C@@H](CC=C4C[C@@H](O)CC[C@@]43C)[C@@H]1CC[C@@H]2C1=NN(C2=NC(=O)CS2)C(c2ccc(C#N)cc2)C1 (stereo partly specified) | 48.8% | 93.4% | 6.89 µM |  | 

Source: ChEMBL document CHEMBL5500377, “Design, synthesis and molecular modeling of novel D-ring substituted steroidal 4,5-dihydropyrazole thiazolinone derivatives as anti-inflammatory agents by inhibition of COX-2/iNOS production and down-regulation of NF-κB/MAPKs in LPS-induced RAW264.7 macrophage cells” (Eur J Med Chem, 2024)
